{"source": "patent US11534408B2", "about": "“Microcapsules and methods of using the same” (priority 2018, dated 2022)", "test_system": "Pseudomonas aeruginosa strain PAO1", "experiment": "Diffusion of antibiotic molecules through the membrane of PAO1 nanoculture capsules", "type": "cell-based", "procedure": "FIGS. 9A-9C provide representative brightfield images of the presently disclosed nanoculture capsules. Pseudomonas aeruginosa PAO1 strain was used as the bacterial inoculum for the inner phase of the capsules. Antibiotics, including tobramycin and tetracycline, were introduced 24 hours after encapsulation. (9A) Untreated PAO1 nanoculture after 24 hours. (9B) PAO1 nanoculture treated with 50 ug/ml tobramycin. (9C) PAO1 nanoculture treated with 50 ug/ml tetracycline.\nThe presently disclosed polymer was used to investigate the diffusion of antibiotic molecules through the membrane. Pseudomonas aeruginosa strain PAO1 was used as the bacterial inoculum for the inner phase of the nanoculture capsules. Antibiotics, including tobramycin and tetracycline, to which the PAO1 were sensitive, were introduced 24 hours after encapsulation. A 24-hour incubation period allowed for the confluent growth of PAO1. […] Microcapsules used in FIGS. 9A-9C were generated by using (H:V)=(0.6:1) with 3 ppm Pt catalyst and 0% DMAA. The generated microcapsules were heat treated for 5 minutes at 70° C. immediately after encapsulation. Following heat treatment, capsules were incubated at 37° C. for 24 hours.", "data": [{"smiles": "CN(C)[C@@H]1C(O)=C(C(N)=O)C(=O)[C@@]2(O)C(O)=C3C(=O)c4c(O)cccc4[C@@](C)(O)[C@H]3C[C@@H]12", "note": "[tetracycline]", "values": [{"measurement": "Ability to permeate and diffuse through the membrane", "setting": "inferred from PAO1 killing at 50 ug/ml, membrane (H:V)=(0.6:1), 3 ppm Pt, 0% DMAA", "value": "able to diffuse through the membrane"}]}, {"smiles": "NC[C@H]1O[C@H](O[C@H]2[C@H](O)[C@@H](O[C@H]3O[C@H](CO)[C@@H](O)[C@H](N)[C@H]3O)[C@H](N)C[C@@H]2N)[C@H](N)C[C@@H]1O", "note": "[tobramycin]", "values": [{"measurement": "PAO1 cells in nanoculture capsules after antibiotic treatment", "setting": "50 ug/ml antibiotic introduced 24 hours after encapsulation, capsules (H:V)=(0.6:1), 3 ppm Pt catalyst, 0% DMAA, heat treated 5 minutes at 70° C.", "value": "persisted"}, {"measurement": "Ability to permeate and diffuse through the membrane", "setting": "not told", "value": "unable to permeate and diffuse through the membrane"}]}]}
